Reference: US20230390315A1, “COMPOSITIONS AND METHODS FOR TREATING ISCHEMIC CONDITIONS” (The Regents of the University of California, priority 2020, published 2023)

Legend:
BCEC = BCEC transwell migration assay; assay type: cell-based, bovine; conditions: ManN at 40 uM
Protocol: HUVECs (passage 6-8) were cultured and serum-starved as described in “Western Blots”. Ten thousand cells in 150 μl of EBM-2 medium were then added to the upper chamber of 8 μm pore size cell culture inserts (Falcon) coated with 0.1% gelatin. The lower compartment was filled with 600 μl EBM-2 medium containing various agents. The plates were incubated at 37° C. to allow migration. After 4 hrs, cells were fixed with 4% PFA for 20 min and then stained with crystal violet (Sigma-Aldrich) for 20 min at RT. Migrated cells on the bottom side of the insert membrane were quantified by counting whole area of the insert at 40× magnification. The experiments were carried out in triplicate and repeated three times. BCEC migration was set up similarly, except that wells were coated with FN, cells were suspended in 1% serum media and migration time was 18-24 hrs.

VEGFR2 = assay: Western blot of VEGFR2 protein mass in human ECs; assay type: cell-based; conditions: hRMVEC, HUVEC and hDMVECs; 40 uM ManN
Protocol: Cells were allowed to reach 80% confluency in 12-well plates. […] At various time points, plates were taken out of the incubator and kept on ice. Cell monolayers were first washed once with ice-cold PBS before lysis with 250 μl of Pierce RIPA buffer (ThermoFisher Scientific, Rockford, IL) or use 50 mM Tris-HCl (pH 7.6), 150 mM NaCl, 10% Glycerol, 1% NP-40 containing protease/Phosphatase inhibitor cocktail (100×) (Cell signaling, #5872). Lysates were collected and mixed with 4×Bolt LDS Sample Buffer (Novex, Carlsbad, CA) in the presence of Halt protease inhibitors and phosphatase inhibitor cocktail (ThermoFisher scientific, #NP0007). The samples were subjected to SDS-PAGE (Bolt 4-12% Bis-Tris Plus, Invitrogen) using Bolt MES SDS running buffer or NuPAGE 3-8% Tris-Acetate gel using Tris-Acetate SDS running buffer (Novex). HUVECs (passage 6-8) were plated in EBM-2 basal medium (Lonza) with 0.2% FBS. […] Equal amounts of protein lysates were analyzed by SDS-PAGE and blotted with the indicated antibodies. Proteins were transferred using Tris-Glycine buffer with 20% Methanol (Proteonomics grade) (Apex BioResearch Products). Membranes were first incubated with 5% milk in TBST, pH 7.6 (TEKnova, Hollister, CA), followed by blotting with primary and secondary antibodies. […]

[1] = test system: protein glycosylation in BCECs; assay: N-glycan, monosaccharide, sialic acid and O-glycan analysis of BCECs; assay type: cell-based, bovine
Protocol: As soon as BCECs reached about 80% confluency, they were washed twice with phosphate buffered saline (PBS, Sigma) and harvested by scraping. The cells were pelleted by centrifugation at 300 g for 3 mins and washed once with cold PBS. Cells were homogenized and total protein was measured. All subsequent analysis was based on known protein amount.
N-linked glycans were removed from glycoprotein samples using PNGase-F kit (New England BioLabs, P0705S). Briefly, 300 μg of protein sample was reconstituted in 180 μl UltraPure water. 20 μl of 10× denaturing buffer was added and boiled using 100° C. water bath for 14 mins. Samples were cooled down to room temperature and centrifuged at 2700 g for 1 min. Subsequently, 50 μl 10×NP-40 was added and samples were kept at room temperature for 30 mins with vortexing at 5 min interval, followed by adding 25 μL of 10×reaction buffer and mixing thoroughly. 5 μl PNGaseF (2500 U) was then added to the samples and mixed gently. Samples were incubated at 37° C. for 16 hrs. Released N-glycans were purified using solid phase extraction method. Briefly, N-glycans were purified by passing the reaction mixture sequentially over pre-conditioned Sep-Pak C18 1 cc cartridge (Waters) and HyperSep PGC ([…]) cartridge (25 mg, 1 ml Thermo Scientific). The cartridge was washed with 4 ml of water and the PGC alone was washed with additional 1 ml of water. N-glycans bound to PGC were eluted using 30% acetonitrile containing 0.1% TFA in water. Finally, purified N-glycans were lyophilized and labeled with 2-AB. Briefly, samples were dissolved in 10 μl solution of 0.44 M 2-AB (2-Amino benzamide) in 35% acetic acid in DMSO containing 1M sodium cyanoborohydride. The samples were incubated at 65° C. for 2.5 hrs. The 2-AB labeled glycans were purified using GlycoClean S cartridge (GLYKO) following their glycan clean-up protocol. Excess reagent was removed from the samples using Glycoclean S-cartridge (Prozyme) and labelled glycans were dried using SpeedVac and stored at −20° C. Profiling of 2-AB labeled glycans was obtained using Dionex CarboPac PA1 (4×250 mm) anion exchange column along with a guard column (4×50 mm) at flow rate of 1 ml/min. Glycans were separated in 100 mM sodium hydroxide with a sodium acetate gradient of 0-250 mM in 0-75 minutes. The data was collected using the Dionex ICS-3000 HPLC system with Ultimate 3000 fluorescence detector (Dionex) set at λex 330 nm at tem 420 nm with sensitivity 7. The data was processed using Chromeleon software (Thermo Scientific).
Monosaccharide composition analysis was done using HPAEC-PAD (Thermo-Dionex ICS3000) and nmole amount of each monosaccharide present in 25 μg of protein was calculated. Samples were hydrolyzed using 2 N trifluoroacetic acid (TFA) at 100° C. for 4 hrs. Followed by removal of acid using dry nitrogen flush. To ensure complete removal of acid, samples were co-evaporated twice with 100 μl of 50% isopropyl alcohol (IPA). Finally, the samples were dissolved in Milli-Q water and injected on HPAEC-PAD. Monosaccharide profile was done using Dionex CarboPac™ PA1 column (250 mm×4 mm; with 50 mm×4 mm guard column). […] All neutral and amino sugars were identified and quantified by comparing with authentic monosaccharide standard mixture consisting of L-fucose, D-galactosamine, D-glucosamine, D-galactose, D-glucose and D-mannose.
Mild acid hydrolysis was used to release sialic acid. […] Known amount of standard Neu5Ac was used to quantify amount of sialic acid in samples. […]

N[C@H](C=O)[C@@H](O)[C@H](O)[C@H](O)CO [ManN, 2-Amino-2-deoxy-D-mannose]
additivity with VEGF in promoting BCEC migration (BCEC): significant additivity with VEGF
change in VEGFR2 protein mass (VEGFR2): significant change in VEGFR2 protein mass
fucose (8 hours), mannose (12 hours), galactose (24 hours) and Neu5Ac (8 and 24 hours) content vs untreated control [1]: significant decrease
incorporation of ManN in N-glycans [1]: No incorporation of ManN was detected
Man-5 and Man-7 content ([1]; 40 uM ManN): significant early phase accumulation
Man-6, Man-8 and Man-9 in total oligomannose N-glycan content vs untreated control ([1]; 40 uM ManN): significant time-dependent reduction
O-glycosylation ([1]; 40 uM ManN, MALDI-Tof): overall decrease in O-glycosylation
